In the supplement of paper PMC10307832:

Assays:
Experiment in all cases: relative viability (nuclei count vs DMSO), 5 days (fraction); higher = more cells survive
HCC-44 = system: HCC-44
Procedure, shortened: (§1)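 Cells from lung cancer lines were seeded into 1536-well plates and, one day later, dosed by pin tool. Treatments were either a single drug or a fixed dose of an anchor drug with five library-drug doses (not always all listed) in √10 steps. After 5 days, nuclei were stained in a one-step fixation (final 0.05% Triton X-100, 1% formaldehyde, 1 ug/ml Hoechst) and counted on 4× images, and relative viability is the treated-to-vehicle nuclei ratio, as the median of duplicate plates.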

NCI-H647 = system: NCI-H647
Procedure, shortened: as §1

NCI-H1437 = system: NCI-H1437
Procedure, shortened: as §1

LCLC-97TM1 = system: LCLC-97TM1
Procedure, shortened: as §1

PC-3 [JPC-3] = system: PC-3 [JPC-3]
Procedure, shortened: as §1

EKVX = system: EKVX
Procedure, shortened: as §1

NCI-H1666 = system: NCI-H1666
Procedure, shortened: as §1

H3255 = system: H3255
Procedure, shortened: as §1

NCI-H650 = system: NCI-H650
Procedure, shortened: as §1

LOU-NH91 = system: LOU-NH91
Procedure, shortened: as §1

SW 1573 = system: SW 1573
Procedure, shortened: as §1

201T = system: 201T
Procedure, shortened: as §1

NCI-H1975 = system: NCI-H1975
Procedure, shortened: as §1

NCI-H2342 = system: NCI-H2342
Procedure, shortened: as §1

HCC-827 = system: HCC-827
Procedure, shortened: as §1

LU99A = system: LU99A
Procedure, shortened: as §1

NCI-H2085 = system: NCI-H2085
Procedure, shortened: as §1

COR-L 105 = system: COR-L 105
Procedure, shortened: as §1

EPLC-272H = system: EPLC-272H
Procedure, shortened: as §1

NCI-H2170 = system: NCI-H2170
Procedure, shortened: as §1

NCI-H2087 = system: NCI-H2087
Procedure, shortened: as §1

BEN = system: BEN
Procedure, shortened: as §1

O=c1cc(N2CCOCC2)oc2c(-c3cccc4c3sc3ccccc34)cccc12 + O=C(c1cc(Cc2n[nH]c(=O)c3ccccc23)ccc1F)N1CCN(C(=O)C2CC2)CC1 [Olaparib] (partner 8 µM)
relative viability (HCC-44; first compound 0.01 µM): 1.01
relative viability (HCC-44; first compound 0.03162 µM): 0.909
relative viability (HCC-44; first compound 0.1 µM): 0.917
relative viability (HCC-44; first compound 0.3162 µM): 0.973
relative viability (HCC-44; first compound 1 µM): 0.987
relative viability (NCI-H647; first compound 0.01 µM): 0.538
relative viability (NCI-H647; first compound 0.03162 µM): 0.682
relative viability (NCI-H647; first compound 0.1 µM): 0.524
relative viability (NCI-H647; first compound 0.3162 µM): 0.655
relative viability (NCI-H647; first compound 1 µM): 0.592
relative viability (NCI-H1437; first compound 0.01 µM): 0.606
relative viability (NCI-H1437; first compound 0.03162 µM): 0.656
relative viability (NCI-H1437; first compound 0.1 µM): 0.725
relative viability (NCI-H1437; first compound 0.3162 µM): 0.656
relative viability (NCI-H1437; first compound 1 µM): 0.613
relative viability (LCLC-97TM1; first compound 0.01 µM): 0.316
relative viability (LCLC-97TM1; first compound 0.03162 µM): 0.374
relative viability (LCLC-97TM1; first compound 0.1 µM): 0.502
relative viability (LCLC-97TM1; first compound 0.3162 µM): 0.269
relative viability (LCLC-97TM1; first compound 1 µM): 0.432
relative viability (PC-3 [JPC-3]; first compound 0.01 µM): 1.07
relative viability (PC-3 [JPC-3]; first compound 0.03162 µM): 1.11
relative viability (PC-3 [JPC-3]; first compound 0.1 µM): 1.15
relative viability (PC-3 [JPC-3]; first compound 0.3162 µM): 1.14
relative viability (PC-3 [JPC-3]; first compound 1 µM): 1.09
relative viability (EKVX; first compound 0.01 µM): 0.769
relative viability (EKVX; first compound 0.03162 µM): 0.807
relative viability (EKVX; first compound 0.1 µM): 1.03
relative viability (EKVX; first compound 0.3162 µM): 0.851
relative viability (EKVX; first compound 1 µM): 0.891
relative viability (NCI-H1666; first compound 0.01 µM): 0.753
relative viability (NCI-H1666; first compound 0.03162 µM): 0.738
relative viability (NCI-H1666; first compound 0.1 µM): 0.777
relative viability (NCI-H1666; first compound 0.3162 µM): 0.684
relative viability (NCI-H1666; first compound 1 µM): 0.692
relative viability (H3255; first compound 0.01 µM): 0.544
relative viability (H3255; first compound 0.03162 µM): 0.517
relative viability (H3255; first compound 0.1 µM): 0.567
relative viability (H3255; first compound 0.3162 µM): 0.512
relative viability (H3255; first compound 1 µM): 0.53
relative viability (NCI-H650; first compound 0.01 µM): 0.424
relative viability (NCI-H650; first compound 0.03162 µM): 0.38
relative viability (NCI-H650; first compound 0.3162 µM): 0.381
relative viability (NCI-H650; first compound 1 µM): 0.4
relative viability (LOU-NH91; first compound 0.01 µM): 0.855
relative viability (LOU-NH91; first compound 0.03162 µM): 0.916
relative viability (LOU-NH91; first compound 0.1 µM): 0.96
relative viability (LOU-NH91; first compound 0.3162 µM): 0.921
relative viability (LOU-NH91; first compound 1 µM): 0.884
relative viability (SW 1573; first compound 0.01 µM): 0.491
relative viability (SW 1573; first compound 0.03162 µM): 0.446
relative viability (SW 1573; first compound 0.1 µM): 0.447
relative viability (SW 1573; first compound 0.3162 µM): 0.441
relative viability (SW 1573; first compound 1 µM): 0.466
relative viability (201T; first compound 0.01 µM): 0.817
relative viability (201T; first compound 0.03162 µM): 0.842
relative viability (201T; first compound 0.1 µM): 0.86
relative viability (201T; first compound 0.3162 µM): 0.815
relative viability (201T; first compound 1 µM): 0.866
relative viability (NCI-H1975; first compound 0.01 µM): 0.834
relative viability (NCI-H1975; first compound 0.03162 µM): 0.785
relative viability (NCI-H1975; first compound 0.1 µM): 0.915
relative viability (NCI-H1975; first compound 0.3162 µM): 0.82
relative viability (NCI-H1975; first compound 1 µM): 0.809
relative viability (NCI-H2342; first compound 0.01 µM): 0.418
relative viability (NCI-H2342; first compound 0.03162 µM): 0.434
relative viability (NCI-H2342; first compound 0.1 µM): 0.438
relative viability (NCI-H2342; first compound 0.3162 µM): 0.457
relative viability (NCI-H2342; first compound 1 µM): 0.428
relative viability (HCC-827; first compound 0.01 µM): 0.695
relative viability (HCC-827; first compound 0.03162 µM): 0.609
relative viability (HCC-827; first compound 0.1 µM): 0.623
relative viability (HCC-827; first compound 0.3162 µM): 0.641
relative viability (HCC-827; first compound 1 µM): 0.642
relative viability (LU99A; first compound 0.01 µM): 0.259
relative viability (LU99A; first compound 0.03162 µM): 0.273
relative viability (LU99A; first compound 0.1 µM): 0.277
relative viability (LU99A; first compound 0.3162 µM): 0.27
relative viability (LU99A; first compound 1 µM): 0.278
relative viability (NCI-H2085; first compound 0.01 µM): 0.806
relative viability (NCI-H2085; first compound 0.03162 µM): 0.813
relative viability (NCI-H2085; first compound 0.1 µM): 0.775
relative viability (NCI-H2085; first compound 0.3162 µM): 0.767
relative viability (NCI-H2085; first compound 1 µM): 0.767
relative viability (COR-L 105; first compound 0.01 µM): 0.661
relative viability (COR-L 105; first compound 0.03162 µM): 0.756
relative viability (COR-L 105; first compound 0.1 µM): 0.687
relative viability (COR-L 105; first compound 0.3162 µM): 0.694
relative viability (COR-L 105; first compound 1 µM): 0.575
relative viability (EPLC-272H; first compound 0.01 µM): 0.761
relative viability (EPLC-272H; first compound 0.03162 µM): 0.934
relative viability (EPLC-272H; first compound 0.1 µM): 0.848
relative viability (EPLC-272H; first compound 0.3162 µM): 0.776
relative viability (EPLC-272H; first compound 1 µM): 0.824
relative viability (NCI-H2170; first compound 0.01 µM): 0.673
relative viability (NCI-H2170; first compound 0.03162 µM): 0.589
relative viability (NCI-H2170; first compound 0.1 µM): 0.526
relative viability (NCI-H2170; first compound 0.3162 µM): 0.53
relative viability (NCI-H2170; first compound 1 µM): 0.598
relative viability (NCI-H2087; first compound 0.01 µM): 0.544
relative viability (NCI-H2087; first compound 0.03162 µM): 0.65
relative viability (NCI-H2087; first compound 0.1 µM): 0.672
relative viability (NCI-H2087; first compound 0.3162 µM): 0.552
relative viability (NCI-H2087; first compound 1 µM): 0.587
relative viability (BEN; first compound 0.01 µM): 1.12
relative viability (BEN; first compound 0.03162 µM): 1.21
relative viability (BEN; first compound 0.1 µM): 1.21
relative viability (BEN; first compound 0.3162 µM): 1.08
relative viability (BEN; first compound 1 µM): 1.1
